Experimental data as given in patent US20210330611A1, “THERAPY FOR NEUROLOGICAL DISEASES/DISORDERS” (priority 2020, published 2021).
Where two headings read alike, the source gives them in different places.

Key:
neuronal viability = conditions: similar concentration range; cited from earlier work
[1] = cited from earlier work
[2] = format: in vivo, mouse; conditions: healthy mice, 10 days, FIG. 12
Procedure: Blood sampling and hematological analysis. Hematological analysis was carried out for mice treated with saline or acivicin for 10 days. Blood samples were collected from the heart of each anesthetized mouse via cardiac puncture. The complete blood cell counts were measured with an automated blood count analyzer (Hemavet, Drew Scientific Inc).

microglia = format: in vivo, mouse; conditions: healthy mice, 14 days, FIG. 12
Procedure: FIGS. 12A-E. Effects of acivicin on microglia, macrophage and whole blood cell numbers. a, Representative images showing morphology and density of primary microglia treated with vehicle or acivicin for 48 h stained with nuclei marker Hoechst or CellMask Red Whole Cell Stain. Quantification of the total number of microglia. Data are representative of one experiment with technical replicates (open symbols). b, Representative confocal images showing morphology and density of control- and acivicin-treated BMDMs treated for 24 h. Scale bar, 100 μm. Insets depict digitally zoomed in areas of regions of interest. Quantification of the total number of BMDMs in the field of view. […] Cell viability of single CD45^+ cells was assessed by Sytox blue live/dead nuclei stain. Quantification of percent cell viability of CD45^+ BMDMs treated with acivicin or left untreated. Data are from 2 independent experiments with n=4 mice per group (mean±s.d.). d, Quantification of complete blood count analysis of white blood cells (WBCs), red blood cells (RBC), platelets (PLT) (left) and composition of WBCs (right) of blood samples from healthy mice treated with saline or acivicin for 10 days. […] Quantification of total microglia cell numbers in healthy mice treated with acivicin or saline. […]

[3] = test system: fibrin- and LPS-induced microglia activation; test: cells; format: cell-based, rat; conditions: for inhibition at 10 µM: Rattus norvegicus
primary rat microglia [4] = test: Cell toxicity (dead cells, size <150 μm2) in coated fibrin (cFib) assay;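 as to Fibrin % cell toxicity: share of dead cells sized under 150 µm2 at 10 µM in fibrin-stimulated microglia HTS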
chronic NOD MOG35-55 EAE = test: Immunohistochemistry of spinal cord in chronic NOD MOG35-55 EAE; format: in vivo, mouse
primary rat microglia [5] = test: Cell toxicity (dead cells, size <150 μm2) in LPS assay; conditions: primary microglia HTS, LPS stimulation; decreased size (<150 μm^2) as marker of toxicity
[6] = test system: LPS-induced microglia activation; test: Image-based assay of LPS-induced microglia activation (HTS and dose response); format: cell-based, rat
MOG35-55 EAE = test: Immunohistochemistry of spinal cord lesions in MOG35-55 EAE mice; format: in vivo, mouse

In the case of `N[C@H](C(=O)O)[C@@H]1CC(Cl)=NO1` [Acivicin, (2S)-2-amino-2-[(5S)-3-chloro-4,5-dihydro-1,2-oxazol-5-yl] acetic acid], the neuronal viability (neuronal viability) is given as “does not affect”, the “toxicity in anti-cancer trials” value [1] is given as “dose limiting toxicity” and the “total cell blood count in vivo” value [2] is given as “did not affect”. For the same compound, the “microglia numbers in the spinal cord in vivo” value (microglia) was “did not affect”, the “Quadrant (FIG. 5b)” value ([3]; HTS of 1907 compounds, quadrant by fibrin and LPS inhibition) was “Q2” and the inhibition at 10 µM ([3]; Microglia, HTS hit classification, read-out: Hit) was > 50%. For the same compound, the inhibition at 10 µM ([3]; hit classification in microglia HTS, read-out: Cherry-picked Hit (Suppl. Table 7)) was > 50%, the “Quadrant (FIG. 5b)” value ([3]; Table 1, screen at 10 μM) was “Q2” and the “Quadrant (FIG. 5b)” value ([3]; Table 2, screen at 10 μM) was “Q2”. For the same compound, the Activity ([3]; Table 7, fib = fibrin, LPS, tox = toxicity) was “fib/LPS”, the “Quadrant (FIG. 5b)” value ([3]; quadrant by fibrin and LPS inhibition in HTS of 1907 compounds) was “Q2” and the “cell toxicity in microglia dose response” value (primary rat microglia [4]; <20 μM, FIG. 6a) was “without cell toxicity”. The “Fibrin % cell toxicity” value (primary rat microglia [4]; primary microglia HTS, fibrin stimulation, decreased size (<150 μm^2) as marker of toxicity) was 2%, the “demyelination (MBP)” value (chronic NOD MOG35-55 EAE; chronic phase, FIG. 8c) was “reduced” and the “NADPH oxidase subunit gp91-phox” value (chronic NOD MOG35-55 EAE; chronic phase, FIG. 8d) was “reduced”. The “axonal damage (SMI-32)” value (chronic NOD MOG35-55 EAE; chronic phase, FIG. 8d) was “reduced”, the “inducible nitric oxide synthase (iNOS)” value (chronic NOD MOG35-55 EAE; chronic phase, FIG. 8d) was “reduced” and the “expression of GGT1” value (chronic NOD MOG35-55 EAE; mouse, in vivo) was “reduced”. For the same compound, the “LPS % cell toxicity” value (primary rat microglia [5]) was 4%, the IC50 ([6]; Rattus norvegicus, Microglia, 48 h, Table 1, dose response 0.001-20 μM, triplicates, primary rat microglia, 48 h, read-out: LPS IC50) was 1 µM and the inhibition at 10 µM ([6]; Rattus norvegicus, Microglia, 48 h, primary microglia HTS, LPS stimulation, increased cell size (>800 μm^2) as marker of activation, read-out: LPS % inhibition) was 93%. The IC50 ([6]; Rattus norvegicus, Microglia, LPS-induced microglia activation, dose response, read-out: LPS IC50 (uM) (Suppl. Table 7)) was 1 µM, the IC50 ([6]; Rattus norvegicus, Microglia, Table 7, read-out: LPS_IC50) was 1.66 µM and the IC50 ([6]; Rattus norvegicus, Microglia, dose response, LPS-induced microglia activation, read-out: LPS IC50) was 1 µM. For the same compound, the LPS-induced microglial activation ([6]; dose-dependent, FIG. 6a) was “inhibited”, the “demyelination (MBP)” value (MOG35-55 EAE; FIG. 7i) was “markedly reduced” and the “neuronal damage (SMI-32)” value (MOG35-55 EAE; FIG. 7i) was “markedly reduced”. For the same compound, the “microglia activation (CX3CR1+ cells)” value (MOG35-55 EAE; FIG. 7j) was “markedly reduced”, the “monocyte/macrophage infiltration (CCR2+ cells)” value (MOG35-55 EAE; FIG. 7j) was “markedly reduced” and the “4-hydroxynonenal (4-HNE) immunostaining” value (MOG35-55 EAE; spinal cord, peak disease, FIG. 7f) was “markedly reduced”.
